This is an account of results in BindingDB's records for doi:10.1021/jm991049m (University of Camerino, 1999).

As usually defined, the Ki is the equilibrium dissociation constant of an inhibitor or competing ligand from its target.

Experiment [1] in a line: Predicted affinity for imidazoline receptor I2 by three field CoMFA model.
Assay in experiment [2]: as above
This is another data set of the same source.

Assay in experiment [3]: as above
The source holds these as a separate data set.

As for `c1ccc([C@H]2C[C@H]2C2=NCCN2)cc1`, in experiment [1], the Ki is 724 nM.

With `c1ccc([C@@H]2C[C@@H]2C2=NCCN2)cc1`, the Ki in experiment [1] is 331 nM.

As to `c1ccc([C@H]2C[C@@H]2C2=NCCN2)cc1`, in experiment [2], the Ki is 251 nM.

With `c1ccc([C@@H]2C[C@H]2C2=NCCN2)cc1`, the Ki in experiment [3] was 23 nM.
